Measurements taken from ChEMBL document CHEMBL1155015, “Synthesis and cytotoxic activities of usnic acid derivatives” (Bioorg Med Chem, 2008).

Experiments:
L1210 [1] = test: Cytotoxicity against mouse L1210 ATCC CCL 219 cells after 48 hrs by MTT assay; type: functional, cell-based; details: L1210, 48 h
CHO [2] = test: Cytotoxicity against CHO cells after 48 hrs by MTT assay; type: cell-based; details: Cricetulus griseus
MCF7 = test: Cytotoxicity against human MCF7 ATCC HTB 22 cells after 72 hrs by MTT assay; type: functional, cell-based; details: MCF7, 72 h
K562 = test: Cytotoxicity against human K562 ATCC CCL 243 cells after 72 hrs by MTT assay; type: functional, cell-based; details: K562, 72 h
U-251 = test: Cytotoxicity against human U251 RCB 0641 cells after 72 hrs by MTT assay; type: functional, cell-based; details: U-251, 72 h
CHO [3] = test: Cytotoxicity against polyamine transport-deficient mutant CHO cells after 48 hrs by MTT assay; type: ADME, cell-based; details: Cricetulus griseus
[4] = Cytotoxicity against mouse 3LL CRL 1642 cells after 48 hrs by MTT assay; type: functional, cell-based
DU-145 = test: Cytotoxicity against human DU145 ATCC HTB 81 cells after 72 hrs by MTT assay; type: functional, cell-based; details: DU-145, 72 h
L1210 [5] = test: Induction of apoptosis in mouse L1210 ATCC CCL 219 cells assessed as fragmented cell nuclei at 3 uM after 24 hrs by Hoechst 33342 staining; type: functional
L1210 [6] = test: Induction of apoptosis in mouse L1210 ATCC CCL 219 cells assessed as fragmented cell nuclei at 3 uM after 48 hrs by Hoechst 33342 staining; type: functional
L1210 [7] = test: Induction of apoptosis in mouse L1210 ATCC CCL 219 cells assessed as fragmented cell nuclei at 4.5 uM after 24 hrs by Hoechst 33342 staining; type: functional
L1210 [8] = test: Induction of apoptosis in mouse L1210 ATCC CCL 219 cells assessed as fragmented cell nuclei at 4.5 uM after 48 hrs by Hoechst 33342 staining; type: functional
L1210 [9] = test: Induction of apoptosis in mouse L1210 ATCC CCL 219 cells assessed as fragmented cell nuclei at 6 uM after 24 hrs by Hoechst 33342 staining; type: functional
L1210 [10] = test: Induction of apoptosis in mouse L1210 ATCC CCL 219 cells assessed as fragmented cell nuclei at 6 uM after 48 hrs by Hoechst 33342 staining; type: functional
L1210 [11] = test: Induction of apoptosis in mouse L1210 ATCC CCL 219 cells assessed as increase in caspase 3 activity at 3 uM after 48 hrs relative to control; type: functional
L1210 [12] = test: Induction of apoptosis in mouse L1210 ATCC CCL 219 cells assessed as increase in caspase 3 activity at 4.5 uM after 48 hrs relative to control; type: functional
L1210 [13] = test: Induction of apoptosis in mouse L1210 ATCC CCL 219 cells assessed as increase in caspase 3 activity at 6 uM after 48 hrs relative to control; type: functional
L1210 [14] = test: Induction of apoptosis in mouse L1210 ATCC CCL 219 cells assessed as fragmented cell nuclei at 17 uM after 24 hrs by Hoechst 33342 staining; type: functional
L1210 [15] = test: Induction of apoptosis in mouse L1210 ATCC CCL 219 cells assessed as fragmented cell nuclei at 17 uM after 48 hrs by Hoechst 33342 staining; type: functional
L1210 [16] = test: Induction of apoptosis in mouse L1210 ATCC CCL 219 cells assessed as fragmented cell nuclei at 26 uM after 24 hrs by Hoechst 33342 staining; type: functional
L1210 [17] = test: Induction of apoptosis in mouse L1210 ATCC CCL 219 cells assessed as fragmented cell nuclei at 26 uM after 48 hrs by Hoechst 33342 staining; type: functional
L1210 [18] = test: Induction of apoptosis in mouse L1210 ATCC CCL 219 cells assessed as fragmented cell nuclei at 35 uM after 24 hrs by Hoechst 33342 staining; type: functional
L1210 [19] = test: Induction of apoptosis in mouse L1210 ATCC CCL 219 cells assessed as fragmented cell nuclei at 35 uM after 48 hrs by Hoechst 33342 staining; type: functional
L1210 [20] = test: Induction of apoptosis in mouse L1210 ATCC CCL 219 cells assessed as increase in caspase 3 activity at 17 uM after 48 hrs relative to control; type: functional
L1210 [21] = test: Induction of apoptosis in mouse L1210 ATCC CCL 219 cells assessed as increase in caspase 3 activity at 26 uM after 48 hrs relative to control; type: functional
L1210 [22] = test: Induction of apoptosis in mouse L1210 ATCC CCL 219 cells assessed as increase in caspase 3 activity at 35 uM after 48 hrs relative to control; type: functional
L1210 [23] = test: Induction of apoptosis in mouse L1210 ATCC CCL 219 cells assessed as fragmented cell nuclei at 1.7 uM after 24 hrs by Hoechst 33342 staining; type: functional
L1210 [24] = test: Induction of apoptosis in mouse L1210 ATCC CCL 219 cells assessed as fragmented cell nuclei at 1.7 uM after 48 hrs by Hoechst 33342 staining; type: functional
L1210 [25] = test: Induction of apoptosis in mouse L1210 ATCC CCL 219 cells assessed as increase in caspase 3 activity at 1.7 uM after 48 hrs relative to control; type: functional

NCCCCCCCCN
IC50 (L1210 [1]): > 100 µM
IC50 (CHO [2]): > 100 µM

CCOC(=O)[C@H](CC(C)C)N/C(C)=C1\C(=O)C=C2Oc3c(C(C)=O)c(O)c(C)c(O)c3[C@@]2(C)C1=O
IC50 (L1210 [1]): 48.9 µM
IC50 (MCF7): > 100 µM
IC50 (K562): 60.7 µM
IC50 (U-251): > 100 µM

CCOC(=O)[C@H](Cc1ccccc1)N/C(C)=C1\C(=O)C=C2Oc3c(C(C)=O)c(O)c(C)c(O)c3[C@@]2(C)C1=O
IC50 (L1210 [1]): 74.4 µM
IC50 (MCF7): > 100 µM
IC50 (K562): > 100 µM
IC50 (U-251): > 100 µM

CC(=O)c1c(O)c(C)c(O)c2c1OC1=CC(=O)/C(=C(/C)NCCCCN)C(=O)[C@@]12C
IC50 (L1210 [1]): 12 µM
IC50 (CHO [2]): 10.7 µM
IC50 (CHO [3]): 12 µM

CC(=O)c1c(O)c(C)c(O)c2c1OC1=CC(=O)/C(=C(/C)NCCCNCCCCNCCCN)C(=O)[C@@]12C
IC50 (L1210 [1]): 15.3 µM
IC50 (CHO [2]): 48 µM
IC50 (CHO [3]): 59 µM
IC50 (MCF7): 11.2 µM
IC50 (U-251): 4.4 µM

CC(=O)c1c(O)c(C)c(O)c2c1OC1=CC(=O)/C(=C(/C)NCCCCO)C(=O)[C@@]12C
IC50 (L1210 [1]): 19.9 µM
IC50 (CHO [2]): 19.5 µM

CC(=O)c1c(O)c(C)c(O)c2c1OC1=CC(=O)/C(=C(/C)NCCCNCCCCN)C(=O)[C@@]12C
IC50 (L1210 [1]): 8.4 µM
IC50 (CHO [2]): 29.3 µM
IC50 (CHO [3]): 28 µM
IC50 (MCF7): 9.9 µM
IC50 (U-251): 12.5 µM

CC[C@H](C)[C@H](N/C(C)=C1\C(=O)C=C2Oc3c(C(C)=O)c(O)c(C)c(O)c3[C@@]2(C)C1=O)C(=O)O
IC50 (L1210 [1]): 17.4 µM
IC50 (MCF7): > 100 µM
IC50 (K562): 56.7 µM

CCCCCCCCCN/C(C)=C1\C(=O)C=C2Oc3c(C(C)=O)c(O)c(C)c(O)c3[C@@]2(C)C1=O
IC50 (L1210 [1]): > 500 µM

CC(=O)c1c(O)c(C)c(O)c2c1OC1=CC(=O)/C(=C(/C)NCCCCCCCCN)C(=O)[C@@]12C
IC50 (L1210 [1]): 2.7 µM
IC50 (CHO [2]): 3.5 µM
IC50 (CHO [3]): 5 µM
IC50 [4]: 8.2 µM
IC50 (DU-145): 14 µM
IC50 (MCF7): 5.8 µM
IC50 (K562): 7.2 µM
IC50 (U-251): 8.2 µM
Activity (L1210 [5]): 37%
Activity (L1210 [6]): 37%
Activity (L1210 [7]): 38%
Activity (L1210 [8]): 42%
Activity (L1210 [9]): 35%
Activity (L1210 [10]): 48%
Activity (L1210 [11]): 1.4
Activity (L1210 [12]): 1.7
Activity (L1210 [13]): 1.7

CC(=O)C1=C(O)C=C2Oc3c(C(C)=O)c(O)c(C)c(O)c3C2(C)C1=O (single isomer, unassigned) [(-)-USNIC ACID]
IC50 (L1210 [1]): 17.4 µM
IC50 [4]: 35.1 µM
IC50 (DU-145): 45.9 µM
IC50 (MCF7): 51.7 µM
IC50 (K562): 21.8 µM
IC50 (U-251): 19.7 µM

CC(=O)C1=C(O)C=C2Oc3c(C(C)=O)c(O)c(C)c(O)c3[C@@]2(C)C1=O [(+)-USNIC ACID]
IC50 (L1210 [1]): 26.4 µM
IC50 (CHO [2]): 31.3 µM
IC50 (CHO [3]): 30 µM
IC50 [4]: 23 µM
IC50 (DU-145): 57.4 µM
IC50 (MCF7): 105 µM
IC50 (K562): 52.8 µM
IC50 (U-251): 19.5 µM
Activity (L1210 [14]): 30%
Activity (L1210 [15]): 33%
Activity (L1210 [16]): 32%
Activity (L1210 [17]): 38%
Activity (L1210 [18]): 35%
Activity (L1210 [19]): 42%
Activity (L1210 [20]): 3.4
Activity (L1210 [21]): 7.4
Activity (L1210 [22]): 21.9

COc1cc([C@@H]2c3cc4c(cc3[C@@H](O[C@@H]3O[C@@H]5CO[C@@H](C)O[C@H]5[C@H](O)[C@H]3O)[C@H]3COC(=O)[C@H]23)OCO4)cc(OC)c1O [ETOPOSIDE]
IC50 (L1210 [1]): 0.5 µM
IC50 [4]: 4 µM
IC50 (DU-145): 1.5 µM
IC50 (K562): 4.9 µM
IC50 (U-251): 0.5 µM
Activity (L1210 [23]): 47%
Activity (L1210 [24]): 53%
Activity (L1210 [25]): 19.5

NCCCCN [PUTRESCINE]
IC50 (L1210 [1]): > 100 µM
IC50 (CHO [2]): > 100 µM
IC50 (CHO [3]): > 100 µM

NCCCCNCCCN [SPERMIDINE]
IC50 (L1210 [1]): > 100 µM
IC50 (CHO [2]): > 100 µM
IC50 (CHO [3]): > 100 µM

NCCCNCCCCNCCCN [SPERMINE]
IC50 (L1210 [1]): 54.5 µM
IC50 (CHO [2]): > 100 µM
IC50 (CHO [3]): > 100 µM
